Results as given in PubChem BioAssay (NCI).
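Briefly, cells in 96-well plates were exposed to five compound concentrations for 48 h, and endpoints were estimated by linear interpolation. Here, GI50 denotes the concentration required for 50% inhibition of growth. TGI denotes the concentration required for complete inhibition of growth.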

Legend:
Assay in all cases: NCI tumour cell line growth inhibition, 48 h
[1] = system: U251 CNS
[2] = system: NCI-H460 lung
[3] = system: HOP-62 NSCLC
[4] = system: NCI-H23 lung
[5] = system: NCI/ADR-RES ovarian
[6] = system: ACHN renal
[7] = system: SF-268 CNS
[8] = system: LOX IMVI melanoma
[9] = system: T-47D breast
[10] = system: UO-31 renal
[11] = system: A549 NSCLC
[12] = system: IGROV1 ovarian
[13] = system: HCT-15 colon
[14] = system: OVCAR-8 ovarian
[15] = system: TK-10 renal
[16] = system: SF-295 CNS
[17] = system: K-562 leukemia
[18] = system: NCI-H522 lung
[19] = system: COLO 205 colon
[20] = system: HCC-2998 colon
[21] = system: RPMI-8226 leukemia
[22] = system: 786-0 renal
[23] = system: HL-60(TB) leukemia
[24] = system: KM12 colon
[25] = system: M14 melanoma
[26] = system: HS 578T breast
[27] = system: RXF 393 renal
[28] = system: UACC-62 melanoma
[29] = system: OVCAR-5 ovarian
[30] = system: SR leukemia
[31] = system: SN12C renal
[32] = system: HCT-116 colon
[33] = system: SF-539 CNS
[34] = system: SK-MEL-5 melanoma
[35] = system: HOP-92 NSCLC
[36] = system: CAKI-1 renal
[37] = system: HT29 colon
[38] = system: MCF7 breast
[39] = system: SK-MEL-2 melanoma
[40] = system: CCRF-CEM leukemia
[41] = system: MDA-MB-231 breast
[42] = system: SK-OV-3 ovarian
[43] = system: SW-620 colon
[44] = system: MDA-MB-435
[45] = system: UACC-257 melanoma
[46] = system: DU-145 prostate
[47] = system: BT-549 breast
[48] = system: PC-3 prostate
[49] = system: MOLT-4 leukemia
[50] = system: OVCAR-4 ovarian
[51] = system: SNB-75 CNS
[52] = system: SNB-19 CNS
[53] = system: SK-MEL-28 melanoma
[54] = system: NCI-H226 lung
[55] = system: A498 renal
[56] = system: EKVX NSCLC
[57] = system: MALME-3M melanoma
[58] = system: OVCAR-3 ovarian

CN1CCN(c2ccc(-c3cnc4c(-c5csc6ccccc56)cnn4c3)cc2)CC1
GI50 [1]: 4.38 µM
TGI [1]: > 15 µM
GI50 [2]: 2.14 µM
TGI [2]: 4.41 µM
GI50 [3]: 8.37 µM
TGI [3]: > 15 µM
GI50 [4]: 6.06 µM
TGI [4]: > 15 µM
GI50 [5]: 6.2 µM
TGI [5]: > 15 µM
GI50 [6]: 2.95 µM
TGI [6]: 6.13 µM
GI50 [7]: > 15 µM
TGI [7]: > 15 µM
GI50 [8]: 2.65 µM
TGI [8]: 5.4 µM
GI50 [9]: > 15 µM
TGI [9]: > 15 µM
GI50 [10]: 10.3 µM
TGI [10]: > 15 µM
GI50 [11]: 3.11 µM
TGI [11]: 11.4 µM
GI50 [12]: 7.55 µM
TGI [12]: > 15 µM
GI50 [13]: 3.65 µM
TGI [13]: > 15 µM
GI50 [14]: 5.7 µM
TGI [14]: > 15 µM
GI50 [15]: 8.37 µM
TGI [15]: > 15 µM
GI50 [16]: > 15 µM
TGI [16]: > 15 µM
GI50 [17]: 3.03 µM
TGI [17]: > 15 µM
GI50 [18]: 8.15 µM
TGI [18]: > 15 µM
GI50 [19]: 7.28 µM
TGI [19]: > 15 µM
GI50 [20]: 6 µM
TGI [20]: > 15 µM
GI50 [21]: 2.99 µM
TGI [21]: 9.75 µM
GI50 [22]: 4.35 µM
TGI [22]: 12.3 µM
GI50 [23]: 5.89 µM
TGI [23]: > 15 µM
GI50 [24]: 4.59 µM
TGI [24]: > 15 µM
GI50 [25]: 5.01 µM
TGI [25]: > 15 µM
GI50 [26]: 10.9 µM
TGI [26]: > 15 µM
GI50 [27]: 3.5 µM
TGI [27]: 10.7 µM
GI50 [28]: > 15 µM
TGI [28]: > 15 µM
GI50 [29]: > 15 µM
TGI [29]: > 15 µM
GI50 [30]: 3.03 µM
TGI [30]: > 15 µM
GI50 [31]: 14.8 µM
TGI [31]: > 15 µM
GI50 [32]: 3.15 µM
TGI [32]: > 15 µM
GI50 [33]: 2.36 µM
TGI [33]: 4.62 µM
GI50 [34]: 2.48 µM
TGI [34]: 4.54 µM
GI50 [35]: > 15 µM
TGI [35]: > 15 µM
GI50 [36]: 11.3 µM
TGI [36]: > 15 µM
GI50 [37]: 1.19 µM
TGI [37]: > 15 µM
GI50 [38]: 2.58 µM
TGI [38]: > 15 µM
GI50 [39]: > 15 µM
TGI [39]: > 15 µM
GI50 [40]: 4.43 µM
TGI [40]: > 15 µM
GI50 [41]: 4.88 µM
TGI [41]: 14.7 µM
GI50 [42]: > 15 µM
TGI [42]: > 15 µM
GI50 [43]: 3.73 µM
TGI [43]: 10.1 µM
GI50 [44]: 11.7 µM
TGI [44]: > 15 µM
GI50 [45]: 13.8 µM
TGI [45]: > 15 µM
GI50 [46]: 5.59 µM
TGI [46]: > 15 µM
GI50 [47]: 7.29 µM
TGI [47]: > 15 µM
GI50 [48]: 5.59 µM
TGI [48]: > 15 µM
GI50 [49]: 4.1 µM
TGI [49]: > 15 µM
GI50 [50]: 11.2 µM
TGI [50]: > 15 µM
GI50 [51]: > 15 µM
TGI [51]: > 15 µM
GI50 [52]: 9.25 µM
TGI [52]: > 15 µM
GI50 [53]: > 15 µM
TGI [53]: > 15 µM
GI50 [54]: 13.5 µM
TGI [54]: > 15 µM
GI50 [55]: 4.2 µM
TGI [55]: > 15 µM
GI50 [56]: 9.79 µM
TGI [56]: > 15 µM
GI50 [57]: 3.04 µM
TGI [57]: 7.68 µM
GI50 [58]: 3.02 µM
TGI [58]: 6.59 µM
